Read-outs that look alike come from different tables or passages of the source.
Tests used:
Assay type in all cases: cell-based
[1] = test system: 786-O (Renal adenocarcinoma); test: WST-1 cell viability, renal cancer cell line 786-O; settings: Homo sapiens
Protocol: (§1) The cell numbers were counted and reseed as 2×10^6 in culture plate/flask. Then, the culture medium were added to a volume of 10 ml, and the cells were cultured for 2-3 days. Then, the cells were suspended for loading into 96-well plates. The number of cells was 3000 and the volume of the culture medium was 100 μl each well.
(§2) Removing the original culture medium from 96-well plate. Then add 100 μl of commercially drug at a concentration of 10 μM per well. After 72 hours, add the diluted WST-1 reagent to the well with 100 μl/well, and the diluted WST-1 reagent was acquired from the dilution of 9:1 medium and WST-1 stock reagent. Finally, the total volume of each well was 200 μl/well. Culture the 96-well plate at 37° C. for 30 to 90 minutes. Detecting and calculate the survival rate of each cancer cells with an ELISA reader at OD450 nm.

[2] = test system: MDA-MB-231 (Mammary Gland, Adenocarcinoma); test: WST-1 cell viability, breast cancer cell line MDA-MB-231; settings: Homo sapiens
Protocol: as §1, §2

[3] = test system: AGS (Gastric Adenocarcinoma); test: WST-1 cell viability, gastric cancer cell line AGS; settings: 72 h
Protocol: as §1, §2

[4] = test system: HepG2 (hepatocellular carcinoma); test: WST-1 cell viability, hepatic cancer cell line HepG2; settings: Homo sapiens
Protocol: as §1, §2

[5] = test system: Hep3B (hepatocellular carcinoma); test: WST-1 cell viability, hepatic cancer cell line Hep3B; settings: Homo sapiens, 72 h
Protocol: as §1, §2

HCT116-wt = test: WST-1 cell viability, colorectal cancer cell line HCT116-wt; settings: 72 h
Protocol: as §1, §2

BxPC-3 = test: WST-1 cell viability, pancreatic cancer cell line BxPC-3; settings: Homo sapiens
Protocol: as §1, §2

U2OS = test: WST-1 cell viability, osteosarcoma cell line U2OS; settings: Homo sapiens, 72 h
Protocol: as §1, §2

[6] = WST-1 cell viability, normal pulmonary epithelial cell line BEAS-2B; settings: human, BEAS-2B normal bronchial (pulmonary) epithelial cells
cervical cancer cells = test: Summary of cell viability, cervical cancer; settings: 72 h, read-out: Inhibitory effect
Protocol: as §2

prostate cancer cells = test: Summary of cell viability, prostate cancer; settings: 72 h, read-out: Inhibitory effect
Protocol: as §2

normal cells = test: Toxicity to normal cells (cell viability)
Excerpt: Subculture the different types of cancer cells. The cancer cells includes lung cancer, gastric cancer, hepatic cancer, colon cancer, skin cancer, cervical cancer, prostate cancer, bladder cancer, breast cancer, leukemia, pancreatic cancer, ovarian cancer, tongue cancer, osteosarcoma, and renal cancer. The normal cells used in the control group included kidney cells (HEK293), canine fibroblast cell line HFW, and human bronchial epithelial cell line BEAS-2B.
as §2

various cancer cells = test: Inhibitory effect on various cancer cells (cell viability); settings: Table 18, FIG. 1
Excerpt: Subculture the different types of cancer cells. The cancer cells includes lung cancer, gastric cancer, hepatic cancer, colon cancer, skin cancer, cervical cancer, prostate cancer, bladder cancer, breast cancer, leukemia, pancreatic cancer, ovarian cancer, tongue cancer, osteosarcoma, and renal cancer. The normal cells used in the control group included kidney cells (HEK293), canine fibroblast cell line HFW, and human bronchial epithelial cell line BEAS-2B. Removing the original culture medium from 96-well plate. […] After 72 hours, add the diluted WST-1 reagent to the well with 100 μl/well, and the diluted WST-1 reagent was acquired from the dilution of 9:1 medium and WST-1 stock reagent. […] Culture the 96-well plate at 37° C. for 30 to 90 minutes. Detecting and calculate the survival rate of each cancer cells with an ELISA reader at OD450 nm. […] (FIG. 1)

[7] = average of 4 tests, read-out: survival rate (inhibition effect), Average

Compound: Fc1ccc([C@@H]2CCNC[C@H]2COc2ccc3c(c2)OCO3)cc1 [Paroxetine]
- viability at 10 µM ([1]; 786-0, 786-O, 72 h, run 0524-10 min, read-out: survival rate (inhibition effect)): 35.2%
- viability at 10 µM ([1]; 786-0, 786-O, 72 h, run 0526-10 min, read-out: survival rate (inhibition effect)): 24%
- viability at 10 µM ([1]; 786-0, 786-O, 72 h, run 0529-10 min, read-out: survival rate (inhibition effect)): 14.6%
- viability at 10 µM ([1]; 786-0, 786-O, 72 h, run 0531-10 min, read-out: survival rate (inhibition effect)): 22.3%
- viability at 10 µM ([1]; 786-0, 72 h, 786-O, average of 4 tests, read-out: survival rate (inhibition effect), Average): 24%
- viability at 10 µM ([1]; 786-0, 72 h, summary, renal cancer, read-out: Inhibitory effect): 72.5%
- viability at 10 µM ([2]; MDA-MB-231, 72 h, MDA-MB-231, average of 4 tests, read-out: survival rate (inhibition effect), Average): 41.8%
- viability at 10 µM ([2]; MDA-MB-231, MDA-MB-231, 72 h, run 0612-10 min, read-out: survival rate (inhibition effect)): 47.9%
- viability at 10 µM ([2]; MDA-MB-231, MDA-MB-231, 72 h, run 0614-10 min, read-out: survival rate (inhibition effect)): 35.9%
- viability at 10 µM ([2]; MDA-MB-231, MDA-MB-231, 72 h, run 0616-10 min, read-out: survival rate (inhibition effect)): 42%
- viability at 10 µM ([2]; MDA-MB-231, MDA-MB-231, 72 h, run 0619-10 min, read-out: survival rate (inhibition effect)): 41.2%
- viability at 10 µM [3, 7]: 12.2%
- viability at 10 µM ([3]; run 0510-10 min, read-out: survival rate (inhibition effect)): 12%
- viability at 10 µM ([3]; run 0512-10 min, read-out: survival rate (inhibition effect)): 11.1%
- viability at 10 µM ([3]; run 0515-10 min, read-out: survival rate (inhibition effect)): 12.7%
- viability at 10 µM ([3]; run 0517-10 min, read-out: survival rate (inhibition effect)): 12.8%
- viability at 10 µM ([4]; HepG2, 72 h, HepG2, average of 4 tests, read-out: survival rate (inhibition effect), Average): 54.1%
- viability at 10 µM ([4]; HepG2, HepG2, 72 h, run 0524-20 min, read-out: survival rate (inhibition effect)): 66.4%
- viability at 10 µM ([4]; HepG2, HepG2, 72 h, run 0526-20 min, read-out: survival rate (inhibition effect)): 58.3%
- viability at 10 µM ([4]; HepG2, HepG2, 72 h, run 0529-20 min, read-out: survival rate (inhibition effect)): 50.1%
- viability at 10 µM ([4]; HepG2, HepG2, 72 h, run 0531-20 min, read-out: survival rate (inhibition effect)): 41.7%
- viability at 10 µM [5, 7]: 66.1%
- viability at 10 µM ([5]; run 0612-20 min, read-out: survival rate (inhibition effect)): 69.8%
- viability at 10 µM ([5]; run 0614-20 min, read-out: survival rate (inhibition effect)): 67.4%
- viability at 10 µM ([5]; run 0616-20 min, read-out: survival rate (inhibition effect)): 66.2%
- viability at 10 µM ([5]; run 0619-20 min, read-out: survival rate (inhibition effect)): 60.9%
- viability at 10 µM (HCT116-wt; [7]): 28.4%
- viability at 10 µM (HCT116-wt; run 0602-30 min, read-out: survival rate (inhibition effect)): 23.8%
- viability at 10 µM (HCT116-wt; run 0605-10 min, read-out: survival rate (inhibition effect)): 30.6%
- viability at 10 µM (HCT116-wt; run 0607-10 min, read-out: survival rate (inhibition effect)): 29.7%
- viability at 10 µM (HCT116-wt; run 0609-10 min, read-out: survival rate (inhibition effect)): 29.5%
- viability at 10 µM (BxPC-3; BXPC-3, 72 h, BxPC-3, average of 4 tests, read-out: survival rate (inhibition effect), Average): 77.7%
- viability at 10 µM (BxPC-3; BXPC-3, BxPC-3, 72 h, run 3-4-30 min, read-out: survival rate (inhibition effect)): 87%
- viability at 10 µM (BxPC-3; BXPC-3, BxPC-3, 72 h, run 3-7-3-30 min, read-out: survival rate (inhibition effect)): 59.7%
- viability at 10 µM (BxPC-3; BXPC-3, BxPC-3, 72 h, run 3-7-4-30 min, read-out: survival rate (inhibition effect)): 93.7%
- viability at 10 µM (U2OS; [7]): 33.2%
- viability at 10 µM (U2OS; run 6-26-10 min, read-out: survival rate (inhibition effect)): 40.6%
- viability at 10 µM (U2OS; run 6-28-10 min, read-out: survival rate (inhibition effect)): 30.8%
- viability at 10 µM (U2OS; run 6-30-10 min, read-out: survival rate (inhibition effect)): 30.3%
- viability at 10 µM (U2OS; run 7-3-10 min, read-out: survival rate (inhibition effect)): 31.1%
- viability at 10 µM (U2OS; summary, osteosarcoma, read-out: Inhibitory effect): 33.2%
- viability at 72 h, 10 µM ([6]; BEAS-2B, average of 4 tests, read-out: survival rate (inhibition effect), Average): 98.6%
- viability at 72 h, 10 µM ([6]; BEAS-2B, run 0512-10 min, read-out: survival rate (inhibition effect)): 103%
- viability at 72 h, 10 µM ([6]; BEAS-2B, run 0515-10 min, read-out: survival rate (inhibition effect)): 96.4%
- viability at 72 h, 10 µM ([6]; BEAS-2B, run 0517-10 min, read-out: survival rate (inhibition effect)): 94.6%
- viability at 72 h, 10 µM ([6]; summary, pulmonary epithelial cell line, read-out: Inhibitory effect): 98.6%
- viability at 10 µM (cervical cancer cells): 63.8%
- viability at 10 µM (prostate cancer cells): 44.1%
- toxicity to normal cells (normal cells): no toxicity or had little toxicity
- inhibitory effect on several cancer cell lines (various cancer cells): significant inhibitory effect
